The target of the test is T1, fascin1 (Homo sapiens, UniProt Q16658).
T1 construct: gene FSCN1; commercial purified fascin1 (Hypermol)
Kind of test: F-actin bundling, low-speed cosedimentation. In kind it is biochemical. The following applies: 1 µM fascin1; 10 µM F-actin.

On to `CN(C)CCCN1c2ccccc2CCc2ccccc21` [imipramine], for which the “F-actin bundling, low-speed cosedimentation” value was “upon imipramine addition, the F-actin pellet fraction significantly diminished in favor of the supernatant”.

The values above are taken from article PMC7062870 (Experimental & Molecular Medicine, 2020).
